Data reported in PMC10131204 (JACS Au, 2023).
Like-named read-outs stand apart in the source and are kept apart here.

How the values were obtained:
DOR [1] = format: cell-based; settings: 10 µM compound, off-DNA
FKBP-cSnap and FRB-nSnap = format: biochemical
DOR [2] = settings: cited from earlier work

Q: For “Met-Enk-RF: a β-arrestin-biased DOR agonist peptide; strong G-protein bias for the MOR (YGGFMRF; Met-enkephalin-Arg-Phe; UniProt P01210 261-267, looked up)”, which “biotinylation of the DOR (β-arrestin activation) in gel-based assay” value (DOR [1]) is on record?
A: Its value is “markedly increased the biotinylation level”.

Q: For `CCC(C)(C)C(=O)C(=O)N1CCCC[C@H]1C(=O)O[C@H](CCc1ccc(OC)c(OC)c1)c1cccc(OCC(=O)O)c1` [SLF, synthetic ligand for FKBP], which “protein labeling with BG-FAM (SnapTag reconstitution)” value (FKBP-cSnap and FRB-nSnap) is on record?
A: The value was “did not induce protein labeling”.

Q: With Tyr-Tic as the compound, how does the Ki (DOR [2]; low-affinity parental peptide) read?
A: Its Ki is ~0.24 µM.

Q: With Dmt-Pro-Phe-Phe as the compound, how does the Ki (DOR [2]; high-affinity parental peptide) read?
A: Its Ki is ~0.028 µM.
